From US20240336653A1, “PEPTIDE COMPOUND TARGETING ELASTIN-DERIVED PEPTIDES AND USE THEREOF” (Shenzhen Turier Biotech Co., Ltd., priority 2020, published 2024)
*1 amine or outer side, *2 acyl side, *3 side chain or, on linkers, in order; H or OH if unused. Primed or numbered codes have the meaning given here. Where no end group is shown, it is not given here. [ ]: non-standard residue; d: D form. The star is where a group is joined. C20 diacid = O=C(O)CCCCCCCCCCCCCCCCCCC(=O)*; γGlu = O=C(O)[C@H](CCC(=O)[*:2])N[*:1]; Iva = CC[C@](C)(N)C(=O)O; PEG2′ = not defined here

Assays:
TGF-β = test: ELISA of TGFβ in serum of mice of the bleomycin model; format: in vivo, C57BL/6J mice; conditions: BLM mice, 150 μg/kg daily intraperitoneal, 14 days, FIG. 6-B
Method: (§1) Molding method: 78 male C57BL/6J mice, 16-18 g in weight and 6-8 weeks old, provided by Laboratory Animal Center, Sun Yat-sen University, randomly divided into 13 groups: 1) normal control group (Normal), n=6; 2) sham-operated saline control group (Saline), n=6; 3) bleomycin model group (BLM), n=6; and 4) model treatment group: administration of 150 μg/kg series compounds to mice, 10 groups in total, n=6/group. On the 7th day after the operation of bleomycin induced pulmonary fibrosis in mice, mice in the model treatment group are treated with drugs (administration frequency: daily administration/150 μg/kg, intraperitoneal injection). Samples are taken 14 days after administration, and pathological observations are recorded.
(§2) The bleomycin (purchased from TCI Shanghai)) induced pulmonary fibrosis model manifests the following pathological features: bronchiectasis, hydropic degeneration of bronchial epithelial cells, obvious edema and widening of alveolar interstitium, and deposition of a large number of fibroblasts and collagen tissue. The alveolar structure almost completely disappears, filled with fibrous connective tissue, and accompanied by inflammatory cell infiltration. After 14 days of administration, the mice in the model treatment group are treated and sampled. Blood is taken from the retrobulbar vein for detection of serological indicators, and […] is taken for pathological analysis.
(§3) The occurrence and development of fibrotic diseases are related to TGF-β and MMP-9 induced EMT process. Matrix metalloproteinases (MMPs) are matrix degrading proteases that degrade all components of extracellular matrix. They participate in the pathophysiological process of pulmonary fibrosis, play an important role in the abnormal remodeling of extracellular matrix and destruction of basement membrane, and promote the recruitment of inflammatory cells and fibroblasts. The increased expression of MMP-9 in pulmonary fibrosis animal models and patients, higher than the normal MMP-9 level, may destroy normal tissue structure and increase the migration of inflammatory cells to the disease site. In order to further explore the inhibitory mechanism of polypeptide drugs on bleomycin induced pulmonary fibrosis, we detect the expression of TGFβ, MMP9 cell factors in serum of mice in each group by ELISA. […] We speculate that its mechanism should be related to TGF-β.

[1] = system: bleomycin induced pulmonary fibrosis; test: Bleomycin (BLM) induced pulmonary fibrosis model in mice; format: in vivo, C57BL/6J mice; conditions: 150 μg/kg daily intraperitoneal, 14 days, FIG. 5; for degree of pulmonary fibrosis (H&E staining and Masson staining): compared with bleomycin control group; for fibronectin in pulmonary parenchyma (α-SMA and Collagen1 immunohistochemistry): compared with bleomycin group
Method: as §1, §2
(§4) H&E staining: paraffin embedded tissue sections are taken and baked at 60° C. for 1 h. Dewaxing and hydration: xylene for 20 minutes→xylene for 20 minutes→absolute alcohol for 15 minutes→absolute alcohol for 15 minutes→95% alcohol for 10 minutes→90% alcohol for 5 minutes→80% alcohol for 5 minutes. Staining: hematoxylin for 7 minutes→rinsing with tap water→differentiation with 1% hydrochloric acid alcohol for 1 s→rinsing with tap water→eosin staining for 15 s-20 s→rinsing with tap water. Dehydration and transparency: 75% alcohol for 1 s→85% alcohol for 1 s→95% alcohol for 1 s→100% alcohol for 1 s→xylene for 1 s→xylene for 1 s. The sections are aired for 30 minutes and sealed with gum.
Masson staining: drying and dewaxing; mordanting; adding celestine blue staining solution for 2-3 min, and washing with water; adding Mayer hematoxylin staining solution and washing with water; differentiating with acid alcohol differentiation liquid for several seconds, and washing with tap water; adding ponceau magenta staining solution and washing with distilled water; treating with phosphomolybdic acid solution; adding aniline blue staining solution for 5 min; treating with weak acid solution for 2 min; dehydration and transparency, airing and sealing with gum.
Immunohistochemistry: drying sections, dewaxing, and then soaking in double distilled water for 5 minutes. […]

LX2 cells = test: Activity evaluation in LX2 cell model (α-SMA protein expression); format: cell-based, human; conditions: 1.0 μM and 10.0 μM, 48 hours incubation, GAPDH internal reference, FIG. 1
Description: In LX2 cell model (which can be directly used as the evaluation model of hepatic fibrosis cells in vitro, because LX2 cells are human liver activated stellate cells. The LX2 cells are purchased from China Center for Type Culture Collection of the Chinese Academy of Sciences, Shanghai, China), the anti-fibrosis activities of peptide compounds 1-25 are preliminarily screened, and the expression of the marker α-SMA protein of myofibroblast activation is detected. The peptide compounds 1-25 is subjected to cell incubation for 48 hours by using two concentrations (1.0 μM and 10.0 μM). The control group is given the same volume of Dulbecco's modified Eagle medium (DMEM) (purchased from Gibco in the United States), and GAPDH (purchased from TransGen Biotech) as the internal reference, α-actin (α-SMA) is a symbolic feature that distinguishes myoblast cells from myofibroblasts.

MMP9 = test: ELISA of MMP9 in serum of mice of the bleomycin model; format: in vivo, C57BL/6J mice; conditions: BLM mice, 150 μg/kg daily intraperitoneal, 14 days, FIG. 6-A
Method: as §1, §2, §3

[2] = system: CCl4 induced hepatic fibrosis; test: Carbon tetrachloride (CCl4) induced hepatic fibrosis model in mice; format: in vivo, C57BL/6J mice; conditions: 100.0 μg/kg intraperitoneal, 3 weeks of administration; for aggregation of inflammatory cells in the liver (HE staining) / hepatic fibrosis of mice: FIG. 2; for expression of Collagen I in the liver (immunohistochemistry): FIG. 3; for collagen deposition in the liver (Sirius red staining): FIG. 4
Method: Molding method: 72 male C57BL/6J mice, male, 18-22 g in weight and 8 weeks old, provided by Laboratory Animal Center, Sun Yat-sen University, randomly divided into 12 groups: 1) control group (Oil)+saline, intraperitoneal injection, n=6; 2) model control group (CCl4)+saline, intraperitoneal injection, n=6; administration of CCl4 to mice once every three days for 6 weeks; 3) model administration group (CCl4)+100.0 μg/kg series of compounds (group 10), intraperitoneal injection, n=6/group. The mice in the control group are injected with corn oil at the same volume and frequency according to the administration volume of 20% CCl4 at the weight of 5.0 μL/g. Administration frequency: administration of CCl4 to mice once every three days for 6 weeks. After 3 weeks of administration of CCl4 to mice in the model administration group, peptide compounds 1, 5, 7, 11, 12, 13, 17, 18, 21 and 22 are administered for 3 weeks from the 4th week. CCl4 and Oil are purchased from Shanghai Aladdin Biochemical Technology Co., Ltd.
In the CCl4 induced hepatic fibrosis model, the manifestations are: inflammatory cell infiltration around the central vein area, hydropic degeneration of hepatic cells, and increased accumulation of collagen fibers in the portal area and the hepatic interlobular septum. After three weeks of administration, the mice are treated and sampled. Blood is taken from the retrobulbar vein for detection of serological indicators, and liver tissue is taken for pathological analysis.
as §4, with “Hematoxylin-eosin (H&E) staining: paraffin” for “H&E staining: paraffin”, “s→xylene for Is→xylene for 1” for “s→xylene for 1 s→xylene for 1”
Sirius red staining: drying and dewaxing; standing for 5.0 minutes in double distilled water; Sirius red staining for 60-80 minutes in a dark room; washing for 5 s with 0.5% glacial acetic acid; dehydration and transparency, sealing and taking photos.
Immunohistochemistry: drying sections, dewaxing, and then soaking in double distilled water for 5 minutes. Antigen retrieval: putting the shelf where pathological sections are placed into a beaker containing citric acid buffer (PH=6.0), and keeping it under high temperature and pressure for 15 minutes; taking out the beaker and letting it stand at room temperature until the temperature drops to the room temperature, then taking out the sections and putting them into 3.0% hydrogen peroxide for 10 minutes to block the endogenous peroxidase activity, and then washing them with PBS for three times, 5 minutes each time; sealing the tissues with 1.0% BSA for 1 h; removing 1.0% BSA, adding Collagen I antibody on the tissue according to the proportion recommended in the Description, and staying overnight at 4° C.; taking out the pathological sections next day, adding the second antibody with horseradish peroxidase after the room temperature is restored, incubating it at 37° C. for 60 minutes, and then use DAB (diaminobenzidine) ([…], USA) to develop color; and re-staining with hematoxylin staining solution, washing with tap water for 5 minutes, differentiating with 1% hydrochloric acid alcohol, then washing with tap water for 5 minutes again, dehydrating, airing, sealing, and taking photos (H&E staining solution and Sirius red staining solution are purchased from Sangon Biotech (Shanghai) Co., Ltd., and Collagen I antibody is purchased from CST Corporation).

Substance | concentration of TGF-β in serum of mice (TGF-β) | degree of pulmonary fibrosis (H&E staining and Masson staining) [1] | fibronectin in pulmonary parenchyma (α-SMA and Collagen1 immunohistochemistry) [1] | inhibiting and improving the activity of α-SMA (expression of α-SMA protein) (LX2 cells) | concentration of MMP9 in serum of mice (MMP9) | aggregation of inflammatory cells in the liver (HE staining) [2] | hepatic fibrosis of mice [2] | expression of Collagen I in the liver (immunohistochemistry) [2] | collagen deposition in the liver (Sirius red staining) [2]
(PEG2-PEG2-γGlu-CO(CH2)18CH3)-Val-Iva-Gly-Ser-Pro-Ser-Ala-Gln-Glu-Glu-Ala-Ser-Pro-Ala-NH2 (V[Iva]GSPSAQEEASPA-NH2; not fully specified (N-terminus); printed as (PEG2-PEG2-γGlu-CO(CH2)18CH3)-Val-Iva-Gly-Ser-Pro-Ser-Ala-Gln-Glu-Glu-Ala-Ser-Pro-Ala-NH2) [Compound 13] | significantly reduce | significantly reduced | significantly less than that in bleomycin group | better effects on inhibiting and improving the activity of α-SMA | significantly reduce | significantly improved | significantly improved | significant therapeutic improvement | significant therapeutic improvement
(PEG2-PEG2-γGlu-CO(CH2)18CO2H)-Val-Iva-Gly-Ser-Pro-Ser-Ala-Gln-Asp-Glu-Ala-Ser-Pro-Ala-NH2 ({C20 diacid-γGlu-PEG2′-PEG2′}-V[Iva]GSPSAQDEASPA-NH2) [Compound 5] | significantly reduce | significantly reduced | significantly less than that in bleomycin group | better effects on inhibiting and improving the activity of α-SMA | significantly reduce | significantly improved | significantly improved | significant therapeutic improvement | significant therapeutic improvement
(PEG2-PEG2-γGlu-CO(CH2)18CO2H)-Val-Iva-Gly-Ser-Pro-Ser-Ala-Gln-Glu-Glu-Ala-Ser-Pro-Ala-NH2 ({C20 diacid-γGlu-PEG2′-PEG2′}-V[Iva]GSPSAQEEASPA-NH2) [Compound 7] | significantly reduce | significantly reduced | significantly less than that in bleomycin group | better effects on inhibiting and improving the activity of α-SMA | significantly reduce | significantly improved | significantly improved | significant therapeutic improvement | significant therapeutic improvement
(PEG2-PEG2-γGlu-CO(CH2)18CO2H)-Val-Iva-Gly-Ser-Pro-Ser-Ala-Gln-Glu-Glu-Ala-Ser-Pro-Leu-NH2 ({C20 diacid-γGlu-PEG2′-PEG2′}-V[Iva]GSPSAQEEASPL-NH2) [Compound 11] | significantly reduce | significantly reduced | significantly less than that in bleomycin group | better effects on inhibiting and improving the activity of α-SMA | significantly reduce | significantly improved | significantly improved | significant therapeutic improvement | significant therapeutic improvement
(PEG2-PEG2-γGlu-CO(CH2)18CO2H)-Val-Val-Gly-Ser-Pro-Ser-Ala-Gln-Asp-Glu-Ala-Ser-Pro-Leu-NH2 ({C20 diacid-γGlu-PEG2′-PEG2′}-VVGSPSAQDEASPL-NH2) [Compound 1] | significantly reduce | significantly reduced | significantly less than that in bleomycin group | better effects on inhibiting and improving the activity of α-SMA | significantly reduce | significantly improved | significantly improved | significant therapeutic improvement | significant therapeutic improvement
